According to ChEMBL document CHEMBL1201862, “PubChem BioAssay data set” (2004):
The source made the active and inactive calls.

How the values were obtained:
Keap1/Nrf2 = Keap1/Nrf2 (Homo sapiens, UniProt Q14145); experiment: Keap1-Nrf2 protein-protein interaction inhibitors, dose response, biochemical, fluorescence polarization, cherry-picked samples (AID 588683)
HeLa = experiment: HeLa cell cytotoxicity, dose response, cytotoxicity control, 24 h, cherry-picked samples (AID 504726); format: functional, cell-based; conditions: Homo sapiens;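 note: potency for cytotoxicity as loss of luminescence signal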
[1] = molecular target: T1, Probable nicotinate-nucleotide adenylyltransferase (Staphylococcus aureus (strain N315), UniProt P65502); format: functional, Staphylococcus aureus subsp. aureus N315;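 for IC50 Mean: confirmatory dose-response retesting of NadD inhibitor hits first found in an ultra-high-throughput screen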
T1 sequence (P65502 whole entry): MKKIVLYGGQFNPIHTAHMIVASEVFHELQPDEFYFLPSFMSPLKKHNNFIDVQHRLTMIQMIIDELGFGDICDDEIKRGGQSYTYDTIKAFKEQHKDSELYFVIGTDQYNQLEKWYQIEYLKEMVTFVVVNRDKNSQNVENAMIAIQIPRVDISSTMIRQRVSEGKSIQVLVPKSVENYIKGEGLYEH

[2] = molecular target: T2, Tyrosine-protein phosphatase non-receptor type 22 (Homo sapiens, UniProt Q9Y2R2); experiment: inhibitors of LYP phosphatase, biochemical, fluorescence intensity, uHTS (AID 1779)
T2 sequence (Q9Y2R2 whole entry): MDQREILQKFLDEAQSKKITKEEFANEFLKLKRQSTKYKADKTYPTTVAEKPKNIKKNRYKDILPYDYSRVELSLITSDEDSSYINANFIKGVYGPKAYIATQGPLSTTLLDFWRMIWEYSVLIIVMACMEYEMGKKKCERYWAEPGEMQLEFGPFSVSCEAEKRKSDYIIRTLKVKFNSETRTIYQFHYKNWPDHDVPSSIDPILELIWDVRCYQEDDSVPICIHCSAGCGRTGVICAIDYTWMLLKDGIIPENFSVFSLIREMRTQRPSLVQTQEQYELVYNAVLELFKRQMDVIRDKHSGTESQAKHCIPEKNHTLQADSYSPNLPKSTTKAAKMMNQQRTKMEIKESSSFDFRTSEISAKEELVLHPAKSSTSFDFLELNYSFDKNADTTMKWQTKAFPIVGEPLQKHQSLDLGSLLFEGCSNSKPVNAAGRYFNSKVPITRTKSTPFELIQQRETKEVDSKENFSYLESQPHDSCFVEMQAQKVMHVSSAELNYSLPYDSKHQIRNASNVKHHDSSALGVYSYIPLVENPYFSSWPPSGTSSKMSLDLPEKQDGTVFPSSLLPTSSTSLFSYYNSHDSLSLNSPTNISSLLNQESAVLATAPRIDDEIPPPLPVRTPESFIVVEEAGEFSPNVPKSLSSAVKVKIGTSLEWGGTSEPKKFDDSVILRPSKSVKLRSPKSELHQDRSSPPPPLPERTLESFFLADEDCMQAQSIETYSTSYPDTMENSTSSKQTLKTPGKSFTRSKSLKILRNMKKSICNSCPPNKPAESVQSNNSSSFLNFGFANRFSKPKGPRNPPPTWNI

[3] = molecular target: Dual specificity protein phosphatase 3 (Homo sapiens, UniProt P51452); experiment: VHR1 phosphatase inhibitors, biochemical (AID 1878)
Sequence of Dual specificity protein phosphatase 3 (P51452 whole entry): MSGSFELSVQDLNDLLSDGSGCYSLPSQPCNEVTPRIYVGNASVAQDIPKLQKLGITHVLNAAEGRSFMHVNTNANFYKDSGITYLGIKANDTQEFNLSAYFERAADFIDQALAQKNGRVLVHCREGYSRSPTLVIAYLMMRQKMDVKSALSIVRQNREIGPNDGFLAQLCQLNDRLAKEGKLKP

[4] = molecular target: Voltage-gated N-type calcium channel alpha-1B subunit/Amyloid beta A4 precursor protein-binding family A member 1 (Homo sapiens, UniProt Q00975+Q02410); format: protein assay
[5] = molecular target: T2, Tyrosine-protein phosphatase non-receptor type 22; format: functional
[6] = molecular target: T1, Probable nicotinate-nucleotide adenylyltransferase; format: functional, Staphylococcus aureus subsp. aureus N315; conditions: read-out: IC50_Mean
BJ = experiment: cytotoxicity toward Ras-transformed BJeLR fibroblasts, dose response, cell-based, alamar blue fluorescence, cherrypicked samples (AID 2631); format: functional; conditions: Homo sapiens;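 note: confirmatory dose-response assay in RAS-dependent BJ fibroblasts engineered with TERT, LT and ST, with cytotoxicity read by fluorescence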
CHO = experiment: cytotoxicity in TLR9-MyD88 CHO cells, dose response, cytotoxicity control for TLR9-MyD88 binding inhibitor project, cell-based, luminescence (AID 588339); format: functional, hamster; conditions: Cricetulus griseus;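 note: CHO cells stably coexpressing TLR9 and MyD88 fusions from primary screen; compound exposure lasted 48 hours before viability readout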
[7] = molecular target: Glucose-6-phosphate 1-dehydrogenase (Homo sapiens, UniProt P11413); experiment: human G6PD enzyme inhibitors, dose response, selectivity assay for P. falciparum G6PD inhibitor project, biochemical, fluorescence (AID 504792); format: functional
Sequence of Glucose-6-phosphate 1-dehydrogenase (P11413 whole entry): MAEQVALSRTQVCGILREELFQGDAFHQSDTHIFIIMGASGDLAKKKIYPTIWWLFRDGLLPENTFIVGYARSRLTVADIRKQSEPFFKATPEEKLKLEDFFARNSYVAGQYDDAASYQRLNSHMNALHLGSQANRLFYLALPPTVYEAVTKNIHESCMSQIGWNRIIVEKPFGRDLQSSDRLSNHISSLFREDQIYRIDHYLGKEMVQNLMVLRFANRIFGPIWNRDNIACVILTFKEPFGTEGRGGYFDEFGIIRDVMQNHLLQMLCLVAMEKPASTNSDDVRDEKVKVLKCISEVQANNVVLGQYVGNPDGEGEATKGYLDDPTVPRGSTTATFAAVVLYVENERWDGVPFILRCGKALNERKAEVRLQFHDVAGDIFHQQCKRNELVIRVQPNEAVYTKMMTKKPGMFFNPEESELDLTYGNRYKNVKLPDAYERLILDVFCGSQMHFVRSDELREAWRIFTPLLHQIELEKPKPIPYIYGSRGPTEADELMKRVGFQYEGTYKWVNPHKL

[8] = HepG2 cell cytotoxicity, dose response, cytotoxicity control for Shn3 inhibitor project, CellTiter-Glo, cherry-picked (AID 624134); format: functional, cell-based
[9] = molecular target: Kappa-type opioid receptor (Homo sapiens, UniProt P41145); format: functional
Sequence of Kappa-type opioid receptor (P41145 whole entry): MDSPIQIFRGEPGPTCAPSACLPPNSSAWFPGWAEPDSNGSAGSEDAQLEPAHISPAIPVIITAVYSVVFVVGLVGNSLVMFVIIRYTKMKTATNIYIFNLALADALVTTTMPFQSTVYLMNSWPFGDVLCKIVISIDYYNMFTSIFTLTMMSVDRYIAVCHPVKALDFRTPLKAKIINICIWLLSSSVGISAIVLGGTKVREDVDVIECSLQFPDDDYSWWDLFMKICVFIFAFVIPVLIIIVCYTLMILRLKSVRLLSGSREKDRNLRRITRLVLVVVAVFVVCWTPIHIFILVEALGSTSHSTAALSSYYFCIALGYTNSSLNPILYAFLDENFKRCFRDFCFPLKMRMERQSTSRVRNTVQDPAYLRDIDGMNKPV

Jurkat = experiment: antigen receptor-induced NF-kB inhibitors, dose response, Jurkat, luciferase reporter, luminescence, B- and T-cell (AID 489004); format: functional, cell-based; conditions: Homo sapiens;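 note: NF-kB luciferase reporter Jurkat cells stimulated with PMA plus ionomycin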
[10] = Shn3 3'UTR reporter inhibitors, dose response, cell-based, Clone20 osteoblasts, firefly luciferase, cherry-picked (AID 624132); format: functional;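 note: firefly luciferase luminescence from reporter carrying the Shn3 3'UTR in osteoblasts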
Vero = Vero cell cytotoxicity, cytotoxicity control for flavivirus capping enzyme inhibitors (AID 588742); format: functional; conditions: Chlorocebus sabaeus
Genome polyprotein = Genome polyprotein (dengue virus type 2, UniProt P29990); experiment: Dengue-2 NS5 methyltransferase inhibitors, primary screen, biochemical, confirmation dose response (AID 588689); format: functional
Sequence of Genome polyprotein (P29990 2492-3391 limits assumed): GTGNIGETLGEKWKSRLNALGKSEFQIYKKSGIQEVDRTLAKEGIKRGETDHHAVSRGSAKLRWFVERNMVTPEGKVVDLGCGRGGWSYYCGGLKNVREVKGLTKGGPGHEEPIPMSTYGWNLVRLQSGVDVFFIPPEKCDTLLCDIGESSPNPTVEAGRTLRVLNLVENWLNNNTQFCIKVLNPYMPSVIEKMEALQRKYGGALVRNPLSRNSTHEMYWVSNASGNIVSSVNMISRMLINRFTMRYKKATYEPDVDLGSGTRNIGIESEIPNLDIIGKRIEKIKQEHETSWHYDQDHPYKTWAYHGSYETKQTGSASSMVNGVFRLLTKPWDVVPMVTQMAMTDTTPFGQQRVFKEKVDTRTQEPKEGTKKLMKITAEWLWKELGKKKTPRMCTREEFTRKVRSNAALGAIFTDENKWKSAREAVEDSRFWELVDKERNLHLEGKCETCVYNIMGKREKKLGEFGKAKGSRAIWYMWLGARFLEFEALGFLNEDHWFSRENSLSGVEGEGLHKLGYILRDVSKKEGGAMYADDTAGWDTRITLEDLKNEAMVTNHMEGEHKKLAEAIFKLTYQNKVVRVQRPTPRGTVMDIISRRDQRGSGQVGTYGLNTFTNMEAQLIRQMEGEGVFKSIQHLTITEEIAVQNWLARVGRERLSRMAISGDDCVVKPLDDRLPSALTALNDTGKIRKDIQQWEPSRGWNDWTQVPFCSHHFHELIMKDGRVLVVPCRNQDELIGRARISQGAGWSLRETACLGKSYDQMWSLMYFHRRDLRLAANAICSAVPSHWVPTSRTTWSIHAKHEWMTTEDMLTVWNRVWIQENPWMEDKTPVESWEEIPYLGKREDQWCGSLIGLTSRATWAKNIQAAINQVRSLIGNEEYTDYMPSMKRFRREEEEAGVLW

Nonstructural protein 1 = Nonstructural protein 1 (Influenza A virus, UniProt Q194T2); format: functional, Influenza A virus (A/California/07/2009(H1N1))
Sequence of Nonstructural protein 1 (Q194T2 whole entry): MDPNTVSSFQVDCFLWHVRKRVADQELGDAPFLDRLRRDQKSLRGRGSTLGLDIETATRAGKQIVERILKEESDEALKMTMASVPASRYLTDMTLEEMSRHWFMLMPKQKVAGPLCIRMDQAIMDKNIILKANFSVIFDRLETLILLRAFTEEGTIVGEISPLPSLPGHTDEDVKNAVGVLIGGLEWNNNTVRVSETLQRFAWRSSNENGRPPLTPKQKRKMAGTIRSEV

[11] = molecular target: T3, Rac GTPase-activating protein 1 (Homo sapiens, UniProt Q9H0H5); experiment: MgcRacGAP GTPase-activating activity inhibitors, confirmation, biochemical, ADP Hunter fluorescence, primary and confirmatory (AID 624330); format: functional
T3 sequence (Q9H0H5 whole entry): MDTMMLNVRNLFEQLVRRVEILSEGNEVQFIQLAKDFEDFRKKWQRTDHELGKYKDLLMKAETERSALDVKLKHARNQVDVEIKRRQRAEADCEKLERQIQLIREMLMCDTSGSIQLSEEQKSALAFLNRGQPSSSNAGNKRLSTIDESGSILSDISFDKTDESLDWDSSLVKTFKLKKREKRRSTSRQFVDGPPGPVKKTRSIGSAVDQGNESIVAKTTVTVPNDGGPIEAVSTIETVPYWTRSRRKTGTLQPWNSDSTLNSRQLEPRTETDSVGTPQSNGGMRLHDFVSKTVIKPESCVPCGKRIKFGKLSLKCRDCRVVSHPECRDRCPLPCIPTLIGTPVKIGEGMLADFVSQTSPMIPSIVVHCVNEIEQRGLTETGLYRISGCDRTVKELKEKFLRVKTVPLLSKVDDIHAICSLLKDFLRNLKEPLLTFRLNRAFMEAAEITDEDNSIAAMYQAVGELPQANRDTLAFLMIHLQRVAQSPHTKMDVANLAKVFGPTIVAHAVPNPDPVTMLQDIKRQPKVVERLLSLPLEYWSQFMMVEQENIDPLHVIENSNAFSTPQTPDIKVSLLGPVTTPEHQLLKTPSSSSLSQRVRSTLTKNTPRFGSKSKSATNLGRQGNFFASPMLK

Sequence of Keap1/Nrf2 (Q16236 whole entry): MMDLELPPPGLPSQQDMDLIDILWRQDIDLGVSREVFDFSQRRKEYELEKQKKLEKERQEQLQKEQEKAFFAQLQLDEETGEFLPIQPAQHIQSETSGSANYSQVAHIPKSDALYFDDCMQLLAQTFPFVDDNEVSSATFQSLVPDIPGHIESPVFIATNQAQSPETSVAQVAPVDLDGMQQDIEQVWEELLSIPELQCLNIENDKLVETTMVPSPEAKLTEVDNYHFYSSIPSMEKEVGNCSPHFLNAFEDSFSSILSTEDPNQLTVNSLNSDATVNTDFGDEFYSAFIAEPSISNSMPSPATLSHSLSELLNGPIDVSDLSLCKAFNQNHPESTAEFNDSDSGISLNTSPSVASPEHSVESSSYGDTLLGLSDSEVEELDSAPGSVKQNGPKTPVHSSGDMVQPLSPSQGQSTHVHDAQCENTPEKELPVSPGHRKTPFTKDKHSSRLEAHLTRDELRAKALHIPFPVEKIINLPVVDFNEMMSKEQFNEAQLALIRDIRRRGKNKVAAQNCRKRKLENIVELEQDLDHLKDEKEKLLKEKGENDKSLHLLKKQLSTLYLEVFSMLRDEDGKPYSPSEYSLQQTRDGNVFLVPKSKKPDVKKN
Sequence of Keap1/Nrf2 (Q14145 whole entry): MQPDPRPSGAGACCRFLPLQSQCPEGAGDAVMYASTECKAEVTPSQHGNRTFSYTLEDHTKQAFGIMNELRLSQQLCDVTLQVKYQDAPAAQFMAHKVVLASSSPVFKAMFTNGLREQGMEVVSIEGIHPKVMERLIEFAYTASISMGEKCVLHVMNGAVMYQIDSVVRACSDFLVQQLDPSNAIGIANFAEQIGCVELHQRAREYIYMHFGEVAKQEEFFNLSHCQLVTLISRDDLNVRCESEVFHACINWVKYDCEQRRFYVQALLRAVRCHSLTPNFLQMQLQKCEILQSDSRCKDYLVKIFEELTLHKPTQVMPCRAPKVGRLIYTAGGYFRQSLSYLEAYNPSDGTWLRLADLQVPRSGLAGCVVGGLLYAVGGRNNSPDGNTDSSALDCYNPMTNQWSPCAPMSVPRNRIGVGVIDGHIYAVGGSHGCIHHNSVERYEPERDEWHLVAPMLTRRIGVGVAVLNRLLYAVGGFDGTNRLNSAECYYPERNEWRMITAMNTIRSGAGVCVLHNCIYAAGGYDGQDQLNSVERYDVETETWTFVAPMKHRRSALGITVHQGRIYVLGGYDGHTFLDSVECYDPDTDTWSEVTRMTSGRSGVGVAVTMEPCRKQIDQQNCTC

In the case of `CCN(CC)CCN1C(=O)c2cccc3cc(N)cc(c23)C1=O`, the AC50 (Keap1/Nrf2) is reported as > 52 µM (inactive) and the AC50 (HeLa) is reported as 109 µM (active).

For `O=C(O)c1cccc(-n2cccc2/C=C2/NC(=O)N(c3ccc(Cl)cc3)C2=O)c1`, the IC50 [1] was 11.1 µM (active), the IC50 [2] was 5.47 µM (active) and the IC50 [3] was < 1.23 µM (inactive). The IC50 [4] was 12.1 µM (active), the IC50 [5] was 2.44 µM (active) and the IC50 [6] was 27.1 µM (active).

For `C=C1C(=O)O[C@@H]2C[C@@H](C)[C@@H]3C=CC(=O)[C@@]3(C)[C@@H](OC(=O)CC(=O)O[C@H]3[C@@H]4C(=C)C(=O)O[C@@H]4C[C@@H](C)[C@@H]4C=CC(=O)[C@]43C)[C@H]12`, the EC50 (BJ) was 0.0525 µM (active), the IC50 (CHO) was 0.147 µM (active) and the IC50 [7] was > 80 µM (inactive). The AC50 [8] was 0.895 µM (active), the IC50 [9] was 13.4 µM (active) and the IC50 (Jurkat) was 0.29 µM (active). For the same compound, the AC50 [10] was 0.292 µM (active) and the CC50 (Vero) was 1.64 µM (active).

With `O=S(=O)(O)c1cc(Cl)cc(N=Nc2ccc(O)cc2O)c1O` the IC50 (Genome polyprotein) was 58.3 µM (active), the IC50 (Nonstructural protein 1) was 8.3 µM (active) and the IC50 [11] was 83.7 µM (active).
